Data: the supplement of paper PMC10949913

Experiments:
Conditions in all cases: 48 h
CU-ACC2 [1] = test: area under concentration-response curve (viability) (AUC (a.u.)); higher = less active
Method in brief: (§1)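 AC50 and area under the curve values derive from fitted concentration-response curves, restricted to inhibitory or non-responding curve classes. The curves came from three adrenocortical carcinoma cell lines in 1,536-well plates, each receiving 23 nL of every library compound at 11 concentrations. Viability was read by CellTiter-Glo luminescence after 48 h, normalised per plate to vehicle and empty-well controls.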

NCI-H295R [2] = test: as above
Method in brief: as §1

CU-ACC1 [3] = test: as above
Method in brief: as §1

CU-ACC2 [4] = test: AC50 viability; higher = less potent
Method in brief: as §1

NCI-H295R [5] = test: AC50 viability; higher = less potent
Method in brief: as §1

CU-ACC1 [6] = test: AC50 viability; higher = less potent
Method in brief: as §1

Compound: COc1cc2ncnc(Nc3ccc(F)c(Cl)c3)c2cc1NC(=O)/C=C/CN1CCCCC1
- area under concentration-response curve (CU-ACC2 [1]): 493
- area under concentration-response curve (NCI-H295R [2]): 459
- area under concentration-response curve (CU-ACC1 [3]): 414
- AC50 viability (CU-ACC2 [4]): 8.33 µM
- AC50 viability (NCI-H295R [5]): 6.61 µM
- AC50 viability (CU-ACC1 [6]): 10.5 µM

Compound: COc1cc(C)c(Sc2cnc(NC(=O)c3ccc(CNC(C)C(C)C)cc3)s2)cc1C(=O)N1CCN(C(C)=O)CC1 (stereo unspecified)
- area under concentration-response curve (CU-ACC2 [1]): 527
- area under concentration-response curve (NCI-H295R [2]): 478
- area under concentration-response curve (CU-ACC1 [3]): 466
- AC50 viability (CU-ACC2 [4]): 16.6 µM
- AC50 viability (NCI-H295R [5]): 14.8 µM
- AC50 viability (CU-ACC1 [6]): 37.2 µM

Compound: O=[N+]([O-])c1ccc(Nc2ccccc2-c2ccccc2)c2nonc12
- area under concentration-response curve (CU-ACC2 [1]): 467
- area under concentration-response curve (NCI-H295R [2]): 434
- area under concentration-response curve (CU-ACC1 [3]): 426
- AC50 viability (CU-ACC2 [4]): 8.33 µM
- AC50 viability (NCI-H295R [5]): 8.33 µM
- AC50 viability (CU-ACC1 [6]): 9.34 µM

Compound: Cc1c[nH]c2nc(Nc3ccc(N4CCN(C)CC4)c(F)c3)nc(-c3cccc(CC#N)c3)c12
- area under concentration-response curve (CU-ACC2 [1]): 422
- area under concentration-response curve (NCI-H295R [2]): 472
- area under concentration-response curve (CU-ACC1 [3]): 457
- AC50 viability (CU-ACC2 [4]): 4.17 µM
- AC50 viability (NCI-H295R [5]): 5.25 µM
- AC50 viability (CU-ACC1 [6]): 6.61 µM

Compound: Cc1ccc(NC(=O)c2ccc3c(c2)OCCO3)cc1NC(=O)c1ccc2nc(OCCN3CCCC3)ccc2c1
- area under concentration-response curve (CU-ACC2 [1]): 373
- area under concentration-response curve (NCI-H295R [2]): 398
- area under concentration-response curve (CU-ACC1 [3]): 303
- AC50 viability (CU-ACC2 [4]): 0.456 µM
- AC50 viability (NCI-H295R [5]): 2.88 µM
- AC50 viability (CU-ACC1 [6]): 6.45 µM

Compound: C=CC(=O)Nc1cccc(Nc2nc(Nc3ccc(N4CCN(C(C)=O)CC4)cc3OC)ncc2C(F)(F)F)c1
- area under concentration-response curve (CU-ACC2 [1]): 394
- area under concentration-response curve (NCI-H295R [2]): 362
- area under concentration-response curve (CU-ACC1 [3]): 335
- AC50 viability (CU-ACC2 [4]): 3.72 µM
- AC50 viability (NCI-H295R [5]): 5.25 µM
- AC50 viability (CU-ACC1 [6]): 4.68 µM

Compound: CN(C)c1ccc(C(=O)NCCCCCCC(=O)NO)cc1
- area under concentration-response curve (CU-ACC2 [1]): 450
- area under concentration-response curve (NCI-H295R [2]): 444
- area under concentration-response curve (CU-ACC1 [3]): 348
- AC50 viability (CU-ACC2 [4]): 4.17 µM
- AC50 viability (NCI-H295R [5]): 5.25 µM
- AC50 viability (CU-ACC1 [6]): 4.68 µM

Compound: CC(C)(O)c1cc2nc(-c3cnc(N)nc3)nc(N3CCOCC3)c2s1
- area under concentration-response curve (CU-ACC2 [1]): 379
- area under concentration-response curve (NCI-H295R [2]): 423
- area under concentration-response curve (CU-ACC1 [3]): 434
- AC50 viability (CU-ACC2 [4]): 2.63 µM
- AC50 viability (NCI-H295R [5]): 1.05 µM
- AC50 viability (CU-ACC1 [6]): 1.32 µM

Compound: O=C(/C=C/c1ccc2ccc(C(F)(F)F)cc2n1)c1ccncc1
- area under concentration-response curve (CU-ACC2 [1]): 439
- area under concentration-response curve (NCI-H295R [2]): 402
- area under concentration-response curve (CU-ACC1 [3]): 365
- AC50 viability (CU-ACC2 [4]): 2.95 µM
- AC50 viability (NCI-H295R [5]): 3.72 µM
- AC50 viability (CU-ACC1 [6]): 3.72 µM

Compound: COc1cc2c(NC3CCN(C(C)C)CC3)nc(C3CCCCC3)nc2cc1OCCCN1CCCC1
- area under concentration-response curve (CU-ACC2 [1]): 350
- area under concentration-response curve (NCI-H295R [2]): 404
- area under concentration-response curve (CU-ACC1 [3]): 369
- AC50 viability (CU-ACC2 [4]): 14.8 µM
- AC50 viability (NCI-H295R [5]): 9.34 µM
- AC50 viability (CU-ACC1 [6]): 11.8 µM

Compound: C=C1CCC2[C@](C)(CO)C(O)CC[C@]2(C)C1C/C=C1/C(=O)OCC1O (stereo partly specified)
- area under concentration-response curve (CU-ACC2 [1]): 504
- area under concentration-response curve (NCI-H295R [2]): 445
- area under concentration-response curve (CU-ACC1 [3]): 472
- AC50 viability (CU-ACC2 [4]): 11.8 µM
- AC50 viability (NCI-H295R [5]): 20.9 µM
- AC50 viability (CU-ACC1 [6]): 18.6 µM

Compound: Cc1ccc([N+](=O)[O-])cc1[S+](=O)([O-])N(C)/N=C/c1cnc2ccc(Br)cn12
- area under concentration-response curve (CU-ACC2 [1]): 332
- area under concentration-response curve (NCI-H295R [2]): 346
- area under concentration-response curve (CU-ACC1 [3]): 226
- AC50 viability (CU-ACC2 [4]): 0.166 µM
- AC50 viability (NCI-H295R [5]): 0.417 µM
- AC50 viability (CU-ACC1 [6]): 0.417 µM

Compound: c1ccc(CNc2nc(NCc3ccccc3)c3ccccc3n2)cc1
- area under concentration-response curve (CU-ACC2 [1]): 467
- area under concentration-response curve (NCI-H295R [2]): 386
- area under concentration-response curve (CU-ACC1 [3]): 366
- AC50 viability (CU-ACC2 [4]): 9.34 µM
- AC50 viability (NCI-H295R [5]): 7.42 µM
- AC50 viability (CU-ACC1 [6]): 7.42 µM

Compound: C=C1CC[C@@H]2[C@](C)(CO)[C@H](O)CC[C@@]2(C)[C@@H]1C/C=C1/C(=O)OC[C@H]1O
- area under concentration-response curve (CU-ACC2 [1]): 388
- area under concentration-response curve (NCI-H295R [2]): 372
- area under concentration-response curve (CU-ACC1 [3]): 334
- AC50 viability (CU-ACC2 [4]): 5.9 µM
- AC50 viability (NCI-H295R [5]): 16.6 µM
- AC50 viability (CU-ACC1 [6]): 11.8 µM

Compound: C=CC(=O)N1CC[C@@H](Oc2nc(Nc3ccc(N4CCC(N5CCN(C)CC5)CC4)cc3)c(C(N)=O)nc2CC)C1
- area under concentration-response curve (CU-ACC2 [1]): 559
- area under concentration-response curve (NCI-H295R [2]): 529
- area under concentration-response curve (CU-ACC1 [3]): 521
- AC50 viability (CU-ACC2 [4]): 8.11 µM
- AC50 viability (NCI-H295R [5]): 8.11 µM
- AC50 viability (CU-ACC1 [6]): 8.11 µM

Compound: COc1ccc(CCN(C)CCCOc2ccc([S+](=O)([O-])c3c(C(C)C)c4ccccc4n3C)cc2)cc1OC
- area under concentration-response curve (CU-ACC2 [1]): 565
- area under concentration-response curve (NCI-H295R [2]): 427
- area under concentration-response curve (CU-ACC1 [3]): 448
- AC50 viability (CU-ACC2 [4]): 20.9 µM
- AC50 viability (NCI-H295R [5]): 13.2 µM
- AC50 viability (CU-ACC1 [6]): 10.5 µM

Compound: COc1cc2nc(N3CCCN(C)CC3)nc(NC3CCN(Cc4ccccc4)CC3)c2cc1OC
- area under concentration-response curve (CU-ACC2 [1]): 535
- area under concentration-response curve (NCI-H295R [2]): 494
- area under concentration-response curve (CU-ACC1 [3]): 362
- AC50 viability (CU-ACC2 [4]): 8.33 µM
- AC50 viability (NCI-H295R [5]): 9.34 µM
- AC50 viability (CU-ACC1 [6]): 13.2 µM

Compound: C[C@@H]1C[C@H]2[C@@H]3\C=C(C)/C4=C/C5=C(C[C@]4(C)[C@H]3[C@@H](O)C[C@]2(C)[C@@]1(O)C(=O)CO)C=N[N]5C6=CC=CC=C6
- area under concentration-response curve (CU-ACC2 [1]): 563
- area under concentration-response curve (NCI-H295R [2]): 474
- area under concentration-response curve (CU-ACC1 [3]): 435
- AC50 viability (CU-ACC2 [4]): 23.5 µM
- AC50 viability (NCI-H295R [5]): 11.8 µM
- AC50 viability (CU-ACC1 [6]): 26.3 µM

Compound: COc1cccc2c(NCc3ccccc3)nc(-n3c(N)nc4ccccc43)nc12
- area under concentration-response curve (CU-ACC2 [1]): 450
- area under concentration-response curve (NCI-H295R [2]): 402
- area under concentration-response curve (CU-ACC1 [3]): 373
- AC50 viability (CU-ACC2 [4]): 3.72 µM
- AC50 viability (NCI-H295R [5]): 3.32 µM
- AC50 viability (CU-ACC1 [6]): 3.32 µM

Compound: COc1cc(N2CCC(N)CC2)ccc1Nc1ncc(Cl)c(-c2c[nH]c3ccccc23)n1
- area under concentration-response curve (CU-ACC2 [1]): 357
- area under concentration-response curve (NCI-H295R [2]): 318
- area under concentration-response curve (CU-ACC1 [3]): 386
- AC50 viability (CU-ACC2 [4]): 5.9 µM
- AC50 viability (NCI-H295R [5]): 1.18 µM
- AC50 viability (CU-ACC1 [6]): 9.34 µM

Compound: COCCN1CCN(Cc2ccc(-c3n[nH]c4c3C(=O)c3c(NC(=O)NN5CCOCC5)cccc3-4)cc2)CC1
- area under concentration-response curve (CU-ACC2 [1]): 295
- area under concentration-response curve (NCI-H295R [2]): 372
- area under concentration-response curve (CU-ACC1 [3]): 301
- AC50 viability (CU-ACC2 [4]): 0.148 µM
- AC50 viability (NCI-H295R [5]): 0.833 µM
- AC50 viability (CU-ACC1 [6]): 0.468 µM

Compound: CO/C1=C/C(C)=C\[C@@H](C)[C@@H](O)[C@@H](C)C/C(C)=C\C=C/[C@H](OC)[C@@H]([C@@H](C)[C@@H](O)[C@H](C)[C@@]2(O)C[C@@H](O)[C@H](C)[C@@H](C(C)C)O2)OC1=O
- area under concentration-response curve (CU-ACC2 [1]): 365
- area under concentration-response curve (NCI-H295R [2]): 443
- area under concentration-response curve (CU-ACC1 [3]): 388
- AC50 viability (CU-ACC2 [4]): 0.0393 µM
- AC50 viability (NCI-H295R [5]): 2.48 µM
- AC50 viability (CU-ACC1 [6]): 0.0312 µM

Compound: COC(=O)c1ccc2c(c1)NC(=O)/C2=C(\Nc1ccc(N(C)C(=O)CN2CCN(C)CC2)cc1)c1ccccc1
- area under concentration-response curve (CU-ACC2 [1]): 528
- area under concentration-response curve (NCI-H295R [2]): 483
- area under concentration-response curve (CU-ACC1 [3]): 504
- AC50 viability (CU-ACC2 [4]): 7.42 µM
- AC50 viability (NCI-H295R [5]): 8.33 µM
- AC50 viability (CU-ACC1 [6]): 20.9 µM

Compound: O=C(/C=C\n1cnc(-c2cc(C(F)(F)F)cc(C(F)(F)F)c2)n1)NNc1ccccn1
- area under concentration-response curve (CU-ACC2 [1]): 245
- area under concentration-response curve (NCI-H295R [2]): 271
- area under concentration-response curve (CU-ACC1 [3]): 273
- AC50 viability (CU-ACC2 [4]): 1.32 µM
- AC50 viability (NCI-H295R [5]): 10.5 µM
- AC50 viability (CU-ACC1 [6]): 2.35 µM

Compound: Cc1cc(Nc2cc(N3CCN(C)CC3)nc(/C=C/c3ccccc3)n2)n[nH]1
- area under concentration-response curve (CU-ACC2 [1]): 369
- area under concentration-response curve (NCI-H295R [2]): 414
- area under concentration-response curve (CU-ACC1 [3]): 401
- AC50 viability (CU-ACC2 [4]): 13.2 µM
- AC50 viability (NCI-H295R [5]): 6.61 µM
- AC50 viability (CU-ACC1 [6]): 11.8 µM

Compound: COc1cc(N2CCC(N3CCN(C)CC3)CC2)ccc1Nc1ncc(Cl)c(Nc2ccccc2P(C)(C)=O)n1
- area under concentration-response curve (CU-ACC2 [1]): 398
- area under concentration-response curve (NCI-H295R [2]): 409
- area under concentration-response curve (CU-ACC1 [3]): 383
- AC50 viability (CU-ACC2 [4]): 1.32 µM
- AC50 viability (NCI-H295R [5]): 2.63 µM
- AC50 viability (CU-ACC1 [6]): 2.09 µM
